According to patent US20250223306A1, “TEAD INHIBITORS AND METHODS OF USE” (Sporos BioDiscovery, Inc., priority 2022, published 2025):

Columns and labels:
LOU-NH91 cells = assay: LOU-NH91 proliferation and cell viability assay (CTG); assay type: cell-based; settings: LOU-NH91 cell line, 216 hours
Procedure: LOU-NH91 cells were trypsinised, counted and plated at the specified cell density in 200 μl of growth media in 96 well flat bottom tissue culture treated plates. The plated cells were incubated overnight at 37° C., 5% CO2 before being treated with compounds in triplicate for each assay point. 50 μl of the serially diluted compound was added to each well giving a final DMSO concentration of 0.5% per well and a total volume of 250 μl per well. The treated cells were incubated for 216 hours (9 days) at 37° C., 5% CO2. Following compound treatment, the remaining viable cells were detected using the Promega CellTiter-Glo 2.0 assay as follows: 150 μl of media was removed from each of the wells to be assayed and 100 μl of room temperature CellTiter-Glo 2.0 reagent was added. The plate was placed on an orbital shaker at 500 rpm at room temperature for 2 minutes, and then incubated without shaking for a further 10 minutes at room temperature. 150 μl of cell lysate was removed from each well and dispensed into a single well of a white opaque 96 well plate. Luminescence at 545 nm was read using a BMG CLARIOstar plate reader. The luminescent signal was directly proportional to number of viable cells, the percent of viable cells relative to the DMSO control was then calculated for each assay point. Percent viability relative to DMSO control was plotted against compound concentration and a curve fitted with non-linear regression in GraphPad Prism software. EC50 and IC50 values were calculated using GraphPad Prism software as follows: For EC50 values a non-constrained four-parameter logistic curve fit was used (Sigmoidal, 4PL, X is concentration). For Absolute IC50 values the baseline was constrained to Y=0 (Absolute IC50, X is concentration). Area Under the Curve (AUC): Prism computes area-under-the-curve by the trapezoidal method. The analysis sees a fitted curve as simply a series of connected XY points. Prism simply computes the area under the “curve” defined by connecting the points by straight lines. The units of the AUC are the units of the Y axis times units of the X axis.

BHY cells = assay: BHY proliferation and cell viability assay (CTG); assay type: cell-based; settings: BHY cell line
Procedure: BHY cells were trypsinised, counted and plated at the specified cell density in 200 μl of growth media in 96 well flat bottom tissue culture treated plates. The plated cells were incubated overnight at 37° C., 5% CO2 before being treated with compounds in triplicate for each assay point. 50 μl of the serially diluted compound was added to each well giving a final DMSO concentration of 0.5% per well and a total volume of 250 μl per well. The treated cells were incubated for 144 hours (6 days) at 37° C., 5% CO2. Following compound treatment, the remaining viable cells were detected using the Promega CellTiter-Glo 2.0 assay as follows: 150 μl of media was removed from each of the wells to be assayed and 100 μl of room temperature CellTiter-Glo 2.0 reagent was added. The plate was placed on an orbital shaker at 500 rpm at room temperature for 2 minutes, and then incubated without shaking for a further 10 minutes at room temperature. 150 μl of cell lysate was removed from each well and dispensed into a single well of a white opaque 96 well plate. Luminescence at 545 nm was read using a BMG CLARIOstar plate reader. The luminescent signal was directly proportional to number of viable cells, the percent of viable cells relative to the DMSO control was then calculated for each assay point. Percent viability relative to DMSO control was plotted against compound concentration and a curve fitted with non-linear regression in GraphPad
Prism software. EC50 and IC50 values are calculated using GraphPad Prism software as follows: For EC50 values, a non-constrained four-parameter logistic curve fit was used (Sigmoidal, 4PL, X is concentration). For Absolute IC50 values the baseline was constrained to Y=0 (Absolute IC50, X is concentration). Area Under the Curve (AUC): Prism computes area-under-the-curve by the trapezoidal method. The analysis sees a fitted curve as simply a series of connected XY points. Prism simply computes the area under the “curve” defined by connecting the points by straight lines. The units of the AUC are the units of the Y axis times units of the X axis.

SDM103T2 cells = assay: SDM103T2 proliferation and cell viability assay (CTG); assay type: cell-based; settings: SDM103T2 cell line, 144 hours
Procedure: SDM103T2 cells were trypsinised, counted and plated at the specified cell density in 200 μl of growth media in 96 well flat bottom tissue culture treated plates. The plated cells were incubated overnight at 37° C., 5% CO2 before being treated with compounds in triplicate for each assay point. 50 μl of the serially diluted compound was added to each well giving a final DMSO concentration of 0.5% per well and a total volume of 250 μl per well. The treated cells were incubated for 144 hours (6 days) at 37° C., 5% CO2. Following compound treatment the remaining viable cells were detected using the Promega CellTiter-Glo 2.0 assay as follows: 150 μl of media was removed from each of the wells to be assayed and 100 μl of room temperature CellTiter-Glo 2.0 reagent was added. The plate was placed on an orbital shaker at 500 rpm at room temperature for 2 minutes, and then incubated without shaking for a further 10 minutes at room temperature. 150 μl of cell lysate was removed from each well and dispensed into a single well of a white opaque 96 well plate. Luminescence at 545 nm was read using a BMG CLARIOstar plate reader. The luminescent signal was directly proportional to number of viable cells, the percent of viable cells relative to the DMSO control was then calculated for each assay point. Percent viability relative to DMSO control was plotted against compound concentration and a curve fitted with non-linear regression in GraphPad Prism software. EC50 and IC50 values were calculated using GraphPad Prism software as follows: For EC50 values a non-constrained four-parameter logistic curve fit was used (Sigmoidal, 4PL, X is concentration). For Absolute IC50 values the baseline was constrained to Y=0 (Absolute IC50, X is concentration). Area Under the Curve (AUC): Prism computes area-under-the-curve by the trapezoidal method. The analysis sees a fitted curve as simply a series of connected XY points. Prism simply computes the area under the “curve” defined by connecting the points by straight lines. The units of the AUC are the units of the Y axis times units of the X axis.

TEAD3 = TEAD3 (Homo sapiens, UniProt Q99594); assay: TEAD thermal shift assay (TSA); assay type: binding
TEAD3, sequence (Q99594 whole entry): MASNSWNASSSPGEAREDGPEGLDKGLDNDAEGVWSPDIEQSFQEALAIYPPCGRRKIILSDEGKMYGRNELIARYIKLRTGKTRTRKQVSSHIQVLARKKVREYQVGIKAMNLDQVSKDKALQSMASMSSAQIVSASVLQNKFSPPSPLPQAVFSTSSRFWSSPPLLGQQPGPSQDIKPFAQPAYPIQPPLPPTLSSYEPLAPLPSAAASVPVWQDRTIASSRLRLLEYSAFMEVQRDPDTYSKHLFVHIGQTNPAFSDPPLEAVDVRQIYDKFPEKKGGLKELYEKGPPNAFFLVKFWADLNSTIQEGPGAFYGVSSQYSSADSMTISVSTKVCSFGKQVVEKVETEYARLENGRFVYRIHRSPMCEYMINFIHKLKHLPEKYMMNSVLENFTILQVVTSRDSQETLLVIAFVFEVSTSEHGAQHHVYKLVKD
Text: (§1) Thermal shift assay (TSA) is a biophysical method to evaluate stability of proteins with change in temperature. The assay measures thermal denaturation temperature in varying conditions such as different drug concentration. For this example, fluorogenic dye was used that bind to unfolded proteins. SYPRO Orange binds non-specifically to hydrophobic surfaces, and water strongly quenches its fluorescence. When the protein unfolds, the exposed hydrophobic surfaces bind the dye, resulting in an increase in fluorescence by excluding water. Detergent micelles also bind the dye and increase background noise dramatically. Binding of small molecules to proteins leads to a stabilization against to thermal denaturation with the degree of thermal stabilization proportional to the strength of binding.
(§2) The study described in this example investigated the change in melting temperature (ΔTm) of TEAD isoforms 1˜4 when treated with TEAD inhibitors. Compound 1-1-a known strong TEAD1 and weak TEAD2 inhibitor; as well as Compound 1-4-a pan-TEAD inhibitor were used as controls.
(§3) Tris-HCL was dissolved in 5 mL of Cell culture grade water and allowed to dissolve completely. The pH was adjusted to 8 using NaOH. Additional assay buffer components were added in the order listed above. The buffer was mixed slowly.
(§4) Assay buffer was prepared according to the procedures outlined above and dispensed into test wells. Spyro orange was added to a concentration of 5× in the assay buffer, followed by test compound stock solution which was added to a concentration of 10 μM or 30 μM in the assay buffer.
(§5) The melt cycle was performed in Bio-RAD PCR instrument from 20-95° C. with ramp rate of 1° C./min.

TEAD4 = TEAD4 (Homo sapiens, UniProt Q15561); assay: TEAD thermal shift assay (TSA); assay type: binding
TEAD4, sequence (Q15561 whole entry): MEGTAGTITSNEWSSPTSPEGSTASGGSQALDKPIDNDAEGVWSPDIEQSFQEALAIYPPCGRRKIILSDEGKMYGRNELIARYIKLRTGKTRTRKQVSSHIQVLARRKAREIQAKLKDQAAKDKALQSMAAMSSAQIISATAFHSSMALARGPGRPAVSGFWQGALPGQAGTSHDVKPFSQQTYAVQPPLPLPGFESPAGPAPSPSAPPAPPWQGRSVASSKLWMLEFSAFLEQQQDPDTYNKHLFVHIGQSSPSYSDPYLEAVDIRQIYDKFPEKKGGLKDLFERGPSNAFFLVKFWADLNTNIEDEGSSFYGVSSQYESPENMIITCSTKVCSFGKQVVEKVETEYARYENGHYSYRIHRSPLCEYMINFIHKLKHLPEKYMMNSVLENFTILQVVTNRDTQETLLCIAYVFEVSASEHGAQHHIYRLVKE
Text: as §1, §2, §3, §4, §5

TEAD2 = TEAD2 (Homo sapiens, UniProt Q15562); assay: TEAD thermal shift assay (TSA); assay type: binding
TEAD2, sequence (Q15562 whole entry): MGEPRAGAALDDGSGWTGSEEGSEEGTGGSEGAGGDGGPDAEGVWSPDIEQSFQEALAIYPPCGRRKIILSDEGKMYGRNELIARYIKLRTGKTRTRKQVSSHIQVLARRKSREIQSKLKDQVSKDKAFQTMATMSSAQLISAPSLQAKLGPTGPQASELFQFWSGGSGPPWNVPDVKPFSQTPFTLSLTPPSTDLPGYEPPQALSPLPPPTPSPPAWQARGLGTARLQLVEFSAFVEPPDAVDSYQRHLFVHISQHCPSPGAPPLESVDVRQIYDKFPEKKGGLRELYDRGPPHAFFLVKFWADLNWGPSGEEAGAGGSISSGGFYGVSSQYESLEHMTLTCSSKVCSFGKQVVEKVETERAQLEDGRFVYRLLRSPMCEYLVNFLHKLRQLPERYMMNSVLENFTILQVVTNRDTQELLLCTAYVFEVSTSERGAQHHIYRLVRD
Text: as §1, §2, §3, §4, §5

TEAD1 = TEAD1 (Homo sapiens, UniProt P28347); assay: TEAD thermal shift assay (TSA); assay type: binding
TEAD1, sequence (P28347 whole entry): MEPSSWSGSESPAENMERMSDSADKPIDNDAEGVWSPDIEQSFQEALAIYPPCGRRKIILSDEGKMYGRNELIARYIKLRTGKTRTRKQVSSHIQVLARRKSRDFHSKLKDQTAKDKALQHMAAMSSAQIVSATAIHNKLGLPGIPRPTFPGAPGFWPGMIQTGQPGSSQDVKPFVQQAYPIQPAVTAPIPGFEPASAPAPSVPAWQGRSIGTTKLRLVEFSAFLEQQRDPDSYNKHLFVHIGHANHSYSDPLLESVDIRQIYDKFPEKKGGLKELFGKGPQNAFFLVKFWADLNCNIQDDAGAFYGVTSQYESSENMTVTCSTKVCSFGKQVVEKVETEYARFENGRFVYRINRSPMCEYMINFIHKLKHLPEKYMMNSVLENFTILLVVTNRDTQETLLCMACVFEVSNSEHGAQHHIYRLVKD
Text: as §1, §2, §3, §4, §5

NCI-H226 xenograft = assay: Inhibition of mouse xenograft NCI-H226 tumors; assay type: in vivo, BALB/c nude mice; settings: Day 27; 3 mg/kg, p.o., QD
Text: This study evaluated the in vivo therapeutic efficacy of TEAD inhibitors in the treatment of the subcutaneous lung cancer NCI-H226 xenograft model in female BALB/c nude mice.
• ANOVA Analysis of variance • BW Body weight • BWL Body weight loss • FFPE Formalin fixed paraffin embedded • IACUC Institutional animal care and use committee • MTV Mean tumor volume • N/A Not available or not applicable • p.o. Oral (ly) • QD Once a day • REG REG=[(T0−Ti)/T0]×100%; • Ti as the mean tumor volume of the treatment group on the measurement day; • T0 as the mean tumor volume of the treatment group on Day 0. • ROA Route of administration • RT Room temperature • RTV Relative tumor volume • SD Standard deviation • SEM Standard error of mean • SOC Standard of care used in clinical setting for a specific disease • TBD To be determined • T/C The Ti/Ci value (%): T/C %=Ti/Ci×100; • Ti and Ci are the mean tumor volumes of the treatment and control groups, respectively, on a given day. • TGI Tumor growth inhibition; TGI %=(1−Ti/Ci)×100; • Ti and Ci are the mean tumor volumes of the treatment and control groups, respectively, on a given day. • TV Tumor volume • PK/PD Pharmacokinetics/Pharmacodynamics • ΔInhibition Mean % ΔInhibition=((Ci−C0)−(Ti−T0))/(Ci−C0)*100% • Ti and Ci are the mean tumor volumes of the treatment and control groups, respectively, on a given day. T0 and C0 as the mean tumor volumes of the treatment and vehicle groups on Day 0.
• Species Mus musculus • Strain Balb/c nude • Supplier GemPharmatech Co., Ltd • Gender Female • No. of Animals Ordered 68 (45 plus 23 spare) • No. of Animals Assigned 45 • to Study • Average Age of Animals 6-8 weeks • at Study Initiation
The NCI-H226 cells (CL-00364) cancer cells were maintained in vitro with RPMI1640 medium supplemented with 10% fetal bovine serum at 37° C. in an atmosphere of 5% CO2 in the air. The cells in exponential growth phase were harvested and quantitated by cell counter before tumor inoculation.
Each mouse was inoculated subcutaneously in the right front flank region with NCI-H226 tumor cells (1×10^7) in 0.2 ml of PBS mixed with Matrigel (1:1) for tumor development.
The randomization was performed when the mean tumor size reached 138.81 mm^3. 45 mice were enrolled in the study. All animals were randomly allocated to 9 study groups, 5 mice in each group. Randomization was performed based on “Matched distribution” method/“Stratified” method (StudyDirector™ software, version 3.1.399.19)/randomized block design. The date of randomization was denoted as day 0.
The treatment was initiated on the same day of randomization (day 0) per study design.
After tumor cells inoculation, the animals were checked daily for morbidity and mortality. During routine monitoring, the animals were checked for any effects of tumor growth and treatments on behavior such as mobility, food and water consumption, body weight gain/loss (Body weights were measured twice per week after randomization), eye/hair matting and any other abnormalities. Mortality and observed clinical signs were recorded for individual animals in detail.
Tumor volumes were measured twice per week after randomization in two dimensions using a caliper, and the volume was expressed in mm^3 using the formula: “V=(L×W×W)/2, where V is tumor volume, L is tumor length (the longest tumor dimension) and W is tumor width (the longest tumor dimension perpendicular to L). Dosing as well as tumor and body weight measurements were conducted in a Laminar Flow Cabinet.
To compare tumor volumes of different groups at a pre-specified day, Bartlett's test was first used to check the assumption of homogeneity of variance across all groups. When the p-value of Bartlett's test was >=0.05, one-way ANOVA was performed to test overall equality of means across all groups. […]

[1] = ratio of protein to compound 1:1
[2] = ratio of protein to compound 1:3

TEAD3 ΔTm (TEAD3; [1]) [°C]	TEAD4 ΔTm (TEAD4; [1]) [°C]	TEAD4 ΔTm (TEAD4; [2]) [°C]	TEAD2 ΔTm (TEAD2; [1]) [°C]	TEAD1 ΔTm (TEAD1; [1]) [°C]	TEAD1 ΔTm (TEAD1; [2]) [°C]	SMILES	EC50 (LOU-NH91 cells) [µM]	EC50 (BHY cells; 144 hours) [µM]	EC50 (BHY cells; 144 h) [µM]	also measured
–	–	–	–	–	–	COC[C@H](CO)NC(=O)c1cnc2c(C3=CCC(C(F)(F)F)CC3)cccc2c1 (single isomer, unassigned) [Compound 104]	< 0.2	< 0.2	–	–
–	–	–	–	–	–	COC[C@H](CO)NC(=O)c1cnc2c(C3=CCC(C(F)(F)F)CC3)cccc2c1 (single isomer, unassigned) [Compound 103]	< 0.2	–	< 0.2	–
0	0	1	1	2	8	CNS(=O)(=O)c1ccc(Nc2ccc(C(F)(F)F)cc2)c(-c2cn(C)cn2)c1 [Compound 1-1, reference compound]	–	–	–	EC50 (SDM103T2 cells): < 0.2 µM; thermal shift / binding across TEAD isoforms, in words (TEAD1; summary of Table 14 over TEAD1-4): pronounced thermal shift only for TEAD1; T/C (NCI-H226 xenograft): 12.51%; TGI (NCI-H226 xenograft): 87.49%; Tumor Volume (mean ± SEM) (NCI-H226 xenograft): 66.85 ± 12.17 mm^3
–	–	–	–	–	–	C[C@H](CO)NC(=O)c1cnc2c(C3=CCC(C(F)(F)F)CC3)cccc2c1 (single isomer, unassigned) [Compound 82]	< 0.2	0.2 to 1	–	–
4	5	7	2	9	10	C[C@H](CO)NC(=O)c1cnc2c(C3=CCC(C(F)(F)F)CC3)cccc2c1 (single isomer, unassigned) [Compound 81]	< 0.2	–	< 0.2	TEAD3 ΔTm (TEAD3; [2]): 5 °C; TEAD2 ΔTm (TEAD2; [2]): 3 °C
